Reference: US20100093642A1, “NOVEL POLYPEPTIDES” (priority 2006, published 2010)
Residues, ends and D or L forms follow the SMILES beside them. No end group written: not given here.

Assays:
[1] = test system: murine B lymphoma (reticulum cell sarcoma) cell line A20; type: cell-based; conditions: 4 h
Method: The cytotoxic effects of the peptides on different human tumour cells were measured using the MTT colorimetric assay (Mosmann, 1983). MIT (3-(4-5-dimethylthiazol-2-yl)-2,5-diphenyl tetrazolium bromide) is a soluble tetrazolium salt yielding a yellow solution when prepared in media or salt solutions lacking phenol red. Dissolved MIT is converted to an insoluble purple formazan by cleavage of the tetrazolium ring by dehydrogenase enzymes. This water insoluble formazan can be solubilized using isopropanol or other solvents and the dissolved material is measured spectrophotometrically. The absorbance was measured as a function of concentration of converted dye. The conversion of the soluble dye to the insoluble purple formazan is utilized in assays for measurement of cell proliferation. […] We used this assay to measure the degree of cell death caused by the peptides.
CT26 and A20 were maintained in RPMI-1640 medium supplemented with 10% heat inactivated FBS and 1% L-glutamine in a humidified atmosphere of 5% CO2 at 37° C. The human embryonic fibroblast cell line, MRC-5, was cultured as a monolayer in MEM medium, under the same conditions as described for the tumour cell lines. CT26 and MRC-5 cells to be used in the assay were grown to a minimum of 75% confluency, trypsinated and split to single cell suspension, counted and centrifuged at 1500 rpm for 7 min. The cell pellet was resuspended to a concentration of 1-2×10^5 cells/ml in RPMI-1640 medium without FBS and L-glutamine-L-alanine (assay-medium). The A20 cells were grown in suspension and adjusted to a concentration of 6×10^5 cells/ml in assay medium. All cell lines were routinely tested for mycoplasma infection using a PCR-based mycoplasma detection kit (MycoSensor PCR Assay Kit, Stratagene), following the supplier's instructions. All cell lines were mycoplasma free.
The cytotoxicity was measured using the MTT method (Mosmann, 1983), with minor modifications. The adherent cells (CT26 and MRC-5) were applied in 96-well culture plates in a volume of 100 μl assay medium and incubated at 37° C. for 24 hours. The A20 cells were applied to the microtiter plates just prior to testing. The medium was removed and the cells were treated with 100 μl of peptide solution (concentrations ranging from 0 to 400 μg/ml), diluted in serum-free medium, and the plates were incubated at 37° C. for 4 hours. Cells treated with Triton X-100 (1%) were used as positive control (100% killing) whereas cells plus medium only were used as negative control. Following the incubation period, 10 and 20 μl MTT (5 mg/ml, dissolved in PBS) were added to each well in the adherent cells (CT26 and MRC-5) and the A20 cells, respectively. After further incubation for 2 hours, a volume of 70 μl of the supernatant was removed and 100 μl acid alcohol (0.04 M HCl in isopropanol) added to each well in the adherent cell lines. For the cells grown in suspension (A20), a volume of 130 μl of the supernatant was removed and 100 μl acid alcohol was added. The plates were placed on a shaker for 1 hour at room temperature and read spectrophotometrically at 590 nm in a microtiter plate reader (Thermomax Molecular devices, New Jersey, USA). Cell survival (%, averaging at least 2 parallels) and IC50 values were estimated as described above.

THP-1 cells = experiment: in vitro; type: cell-based, human
Method: The toxicity of test peptides on THP-1 cells was measured using the MIT method (Mosmann, 1983), with minor modifications. To induce monocyte-macrophage differentiation, THP-1 cells were cultured in 96-well culture plates (10^6 cells/well) in a volume of 100 μl RPMI 1640 medium, containing 50 ng/ml PMA (which is known to induce the maturation of monocytes) and incubated in a humidified atmosphere of 5% CO2 at 37° C. for 48 hours. The medium was then removed and the cells were washed with PBS, added 100 μl fresh medium (without PMA) and incubated for another 24 hours. Medium was removed and the adherent macrophages were treated with 100 μl of peptide solution (concentrations ranging from 0 to 800 μg/ml), diluted in RPMI-1640 assay medium without FBS. After incubation at 37° C. for 1 hour, the cells were added LPS (0.1 μg/ml) and further incubated for 4 hours. Cells treated with Triton X-100 (1%) were used as positive control (100% killing) whereas cells plus medium only were used as negative control. Following the incubation period, 10 μl MTT (5 mg/ml) dissolved in phosphate-buffered saline (PBS) was added to each well, and the plate was further incubated for 2 hours. A volume of 70 μl of the supernatant was then removed and 100 μl acid alcohol (0.04 M HCl in isopropanol) added to each well to dissolve the dark blue crystals. The plate was placed on a shaker for 1 hour at room temperature and read spectrophotometrically at 595 nm in a microtiter plate reader (DTX880 Multimode Detector, Beckman Coulter). Cell survival (%) was then determined from the ΔA595 nm relative to negative control (100% living cells) and expressed as 50% inhibitory concentration (IC50). The IC50 values were estimated from the dose-response curves, which were obtained by averaging at least 3 parallel experiments.

Question: How did the IC50 [1] turn out when CC[C@H](C)[C@H](NC(=O)CNC(=O)[C@H](CO)NC(=O)[C@H](CCCCN)NC(=O)[C@@H](NC(=O)[C@H](C)NC(=O)[C@H](Cc1c[nH]cn1)NC(=O)[C@H](CO)NC(=O)[C@@H](NC(=O)[C@H](CCCCN)NC(=O)[C@H](Cc1c[nH]cn1)NC(=O)[C@H](Cc1ccccc1)NC(=O)[C@@H](NC(=O)[C@H](CCCCN)NC(=O)[C@H](CCCCN)NC(=O)[C@H](Cc1ccccc1)NC(=O)C(Cc1c[nH]c2ccc(Br)cc12)NC(=O)CN)[C@@H](C)O)C(C)C)C(C)C)C(=O)N[C@@H](Cc1c[nH]cn1)C(=O)N[C@@H](C)C(=O)NCC(=O)N[C@@H](CCC(N)=O)C(=O)N[C@@H](CCCNC(=N)N)C(=O)NCC(=O)N[C@@H](CS)C(=O)N[C@@H](CO)C(=O)N[C@@H](C)C(=O)N[C@@H](CC(C)C)C(=O)NCC(=O)N[C@@H](Cc1ccccc1)C(=O)O (stereo partly drawn) [P17 HC-Br] (HELM PEPTIDE1{G.[O=C(C(Cc1c[nH]c2ccc(Br)cc12)N[*:1])[*:2]].F.K.K.T.F.H.K.V.S.H.A.V.K.S.G.I.H.A.G.Q.R.G.C.S.A.L.G.F}$$$$V2.0) was run?
Answer: The IC50 was 24.1 µM.

Question: How did the “Toxicity to THP-1 cells TC50” value (THP-1 cells) turn out when GWFKKTFHKVSHAVKSGIHA [P17 HC (1-20)] was run?
Answer: Its value is “—^b”.

Question: Which IC50 [1] does the source give for GWFKKTFHKVSHAVKSGIHAGQRGCSALGF [P17 HC] here?
Answer: Its IC50 is 3.9 µM.
